Results on 1 compound are retold here after US10980769B2, “Tiglien-3-one derivatives” (QBIOTICS PTY LTD, priority 2005, dated 2021).

Series [1] relates to PKC. Put plainly: PKC activation in cultured tumour cells (scattering and growth inhibition of MCF7). It counts as cell-based, human. As to conditions: defined by scattering and growth inhibition of MCF7 breast cancer cells.
The subject of series [2] is K562 leukemia, MCF-7 breast cancer, Colo-205 colon cancer and D04 and SKMel-5 melanoma. Put plainly: In vitro growth inhibition profile, sensitive versus other cell lines. It counts as cell-based, human. Here is the method: In addition, scattering of MCF-7 and HT-29 colon tumour cells was observed, typical of PKC activators. […] Additionally, given their similarity in structure, EBI-47, EBI-59 and EBI-61 are also considered to be protein kinase C activators.
For growth inhibition assays, cells (2000-5000/well) were seeded in 96-well plates in duplicate, treated with drug next day and allowed to grow for a further 5-6 days. The plates were then washed in PBS (phosphate buffered saline, pH 7.2), fixed with ethanol and stained by addition of 50 μL 0.4% SRB (sulforhodamine) in 1% acetic acid. The plate was left at room temperature for a minimum of 15 minutes, then washed rapidly with tap water and then twice with 1% acetic acid. After addition of 100 μL/well of 10 mM Tris base (unbuffered, pH>9), plates were left for a minimum of 5 minutes, then the absorbance was read at 564 nm on the ELISA reader, with a 3 second prior shaking. After subtraction of a blank (wells with no cells, typically about 0.04), growth inhibition was calculated as % of the untreated control and plotted against dose. […]

Series [3] concerns MM96L cell line. Put plainly: Changes in morphology of cultured cells. It counts as cell-based, human.
For series [4], the system named is MCF-7. Put plainly: Cell scattering of cultured cells. It counts as cell-based, human.
For series [5], the system named is mouse melanoma B16. Put plainly: Growth inhibition of cultured cells. It counts as cell-based. The method, then: (§1) Briefly, a range of tumour cells including mouse melanoma, human melanoma, mouse squamous cell carcinoma, human breast, human colon, human leukemia and human lung and normal human cells including normal human fibroblasts were seeded at 2-5,000 per microtitre well (96-well plate) in 10% FCS-RPMI 1640 culture medium, treated, and allowed to grow until the controls were nearly confluent (5-6 days). The wells were then washed twice with PBS, fix with ethanol for a minimum of 5 minutes and washed with water. SRB solution (50 μL of 0.4% in 1% acetic acid) was added and left at room temperature for a minimum of 15 minutes. The plate was washed rapidly with tap water and then twice with 1% acetic acid. After addition of 100 μL/well of 10 mM Tris base (unbuffered, pH>9), plates were left for a minimum of 5 minutes, then the absorbance was read at 564 nm on the ELISA reader, with a 3 second prior shaking. After subtraction of a blank (wells with no cells, absorbance typically about 0.04), growth inhibition was calculated as % of the untreated control and plotted against dose.
(§2) Briefly, a suspension of a range of tumour cells including mouse melanoma, human melanoma, mouse squamous cell carcinoma, human breast, human colon, human leukemia and human lung and normal human cells including normal human fibroblasts were seeded into round-bottom microtitre plates in 10% FCS-RPMI 1640 culture medium, treated and allowed to grow for 5-6 days. To measure cell growth, 20 μL of a combined MTS/PMS solution (Promega Cell ProliferationAssay Kit Cat #G5430) was added to each well of the 96 well assay plate. After 1-4 hours the plates were placed in the ELISA plate reader and the absorbance read at 490 nm. After subtraction of a blank (wells with no cells, absorbance typically about 0.4), growth inhibition was calculated as % of the untreated control and plotted against dose.

The test system of series [6] is Mouse squamous cell carcinoma K-2. Put plainly: Growth inhibition of cultured cells. It counts as cell-based. Here is the method: as §1, §2
Series [7] has as its system Human melanoma SKMel-5. Put plainly: Growth inhibition of cultured cells. It counts as cell-based. Here is the method:
as §1, §2

Series [8] has as its system LK-2 mouse SCC. Put plainly: Intralesional injection of LK-2 SCC tumours in mice. It counts as in vivo. The method, then: Squamous Cell Carcinoma (SCC) tumours were established by the same method as for topical treatment but were allowed to grow for 15 days before drug treatment. 7 μg EBI-46 in 20 μL, saline was injected into each of 3 sides of the tumour. Tumour size was measured with calipers at appropriate intervals.
(§3) Animal experiments were conducted under Queensland Institute of Medical Research (QIMR) Animal Ethics Committee approvals. The B16 mouse melanoma model was obtained by injecting 0.5 million B16 mouse melanoma cells subcutaneously into each of the 2 flanks of a male C57BL/6 mouse. The human tumour xenografts were obtained by injecting 2 million of the respective tumour cell line into each of 4 sites on the flanks of male nude mice (BALB/c background). EBI-46 was applied: (a) topically by dilution of a concentrated solution in acetone into an isopropanol gel, once a day for 3 days; (b) intralesionally by injection into the tumour of drug dissolved in 25% propylene glycol-0.1 M saline, (c) systemically by injection intraperitoneally in 25% propylene glycol in 0.1 M saline. Tumour size was measured with electronic callipers in mm and converted to volume (cubic mm) using the formula: Tumour volume=length×breadth×breadth/2. Results
A pilot study was conducted on 6 mm×6 mm LK-2 tumours established in nude mice. Approximately 50 μL of a solution of EB548 fractions (approximately 20 μg EBI-46 in the EB548-35 fraction) in saline containing 20% acetone were injected in 3 sites around the periphery of each lesion. This was only done once.
With PEG 400 delivery, 10 μg EBI-46 in 25 μL solution was injected (29 gauge) with a 0.5 mL insulin needle into a 7 mm×7 mm tumour, highly visible on the left flank of a nude mouse.

In series [9] the test system is LK2 mouse SCC. Put plainly: Topical treatment of LK2 mouse SCC tumours in nude mice. It counts as in vivo. Here is the method: Tumour cells were injected subcutaneously (2 million cells/site in 50 μL culture medium for LK2 cells, 0.5 million for B16) into 4 sites each on the flanks of nude mice (for LK2 cells) or C57BL/6 mice (B16 mouse melanoma cells). When tumours became visible (2-4 mm diameter) five to 10 days after injection of cells, 37 μg of EBI-46 in 25 μL, of isopropanol gel was applied to each tumour site, each day for 3 days. Tumour size was measured with calipers at appropriate intervals.
as §3
The above was repeated using the UVB-induced mouse squamous cell carcinoma (SCC) grown on nude mice (FIG. 6) and treated with partially-purified EBI-46.
The most recent experiment with topical application used 2 different doses of EBI-46 (FIG. 7). The low dose was 100 μg/site and the high dose was 350 μg/site/treatment.

“Also recorded” adds a separate entry of the source.

In the case of `C/C=C(\C)C(=O)OC1C(C)C2(O)C(C3OC3(CO)C(O)C3(O)C(=O)C(C)=CC32)C2C(C)(C)C12OC(=O)C(C)CC` (centres unmarked) [EBI-46, 12-tigloyl-13-(2-methylbutanoyl)-6,7-epoxy-4,5,9,12,13,20-hexahydroxy-1-tiglian-3-one], the PKC activity entry in [1] is “yes”. Also, the “growth-inhibiting doses in sensitive cell lines lower than for other human tumour cell lines and normal human fibroblasts” value in series [2] is “approximately 100 fold”. Also, the “change in morphology of MM96L cells” value in series [3] was “characteristic change to bipolar morphology; also recorded: extreme bipolar morphology”. In addition, in series [4], the “scattering of MCF-7 cells” value is recorded as “cell scattering”. In addition, the entries for the “Concentration of EBI-46 at which growth inhibition was observed” value in [5], in series [6] and in series [7] were “=/<2 μg/mL”, <100 ng/mL and <100 ng/mL, respectively. Besides, in series [8] (10 μg in 25 μL PEG 400 containing 10% ethanol, 7 mm × 7 mm tumour), the “tumour at 16 hours” value is recorded as “tumour lump had largely gone”. Besides, the “time mouse remained tumour-free” value in series [8] (10 μg in PEG 400 containing 10% ethanol, single injection) is listed as “over 9 months”. The “systemic toxicity or lung metastases on post mortem” value in series [8] (intralesional 21 ug) is “There were no signs of”; in [9] (37 ug/site once a day for 3 days) it was “no signs of systemic toxicity”. The tumour size result in [8] (intralesional 21 ug (3 × 7 ug), 15-day established tumours) was “reduction of tumour size”. Also, in [9] (37 ug/site in isopropanol gel once a day for 3 days, nude mice), the “tumours cured and healed without scarring” value is recorded as “without scarring of 3 out of 4”. The “tumour growth inhibition result” value in [9] (high dose 350 μg/site/treatment) is given as “excellent result”.
